Earlier results in US20250339446A1 (Kessler Foundation Inc., priority 2016, published 2025).

Tests used:
[1] = test system: bone mineral density (BMD); details: rat, hind limb unweighting; cited from earlier work
BMD in the vertebrae = details: men with idiopathic osteoporosis; cited from earlier work
[2] = daily administration; cited from earlier work
[3] = test system: muscle mass, muscle strength, and bone; details: androgen-deficient men and older men with low testosterone levels; testosterone alone; cited from earlier work

Compound	immobilization-related decrease in BMD [1]	BMD in the vertebrae (BMD in the vertebrae)	absorption and elimination after transdermal application [2]	muscle mass, muscle strength, and bone [3]
C[C@]12CC[C@H]3[C@@H](CCC4=CC(=O)CC[C@@H]43)[C@@H]1CC[C@@H]2O [nandrolone]	blocked much of the immobilization-related decrease in BMD	–	–	–
C[C@]12CC[C@H]3[C@@H](CCC4=CC(=O)CC[C@@]43C)[C@@H]1CC[C@@H]2O [testosterone]	blocked much of the immobilization-related decrease in BMD	increased BMD in the vertebrae	absorbed and eliminated over the course of a day	increase muscle mass, muscle strength, and bone
